According to patent publication US7998940B2, “Aptamers to von Willebrand factor and their use as thrombotic disease therapeutics” (Archemix Corp., priority 2004, dated 2011):
Read-outs that look alike come from different tables or passages of the source. Oligonucleotides are written 5' to 3', each unit as a sugar letter and its base; * is a phosphorothioate linkage, no mark a phosphodiester; rarer units and linkages stand in square brackets, end groups in braces. Plain capitals give the bases only. d = 2'-deoxy (DNA); r = 2'-OH (RNA); f = 2'-fluoro

Legend:
[1] = tested on: rabbit vWF A1 domain (SEQ ID NO 6); assay: dot blot KD determination, rabbit vWF A1 domain; type: binding
Experimental: A 12 point protein titration was used in the dot blot assay (300 nM, 100 nM, 30 nM, 10 nM, 3 nM, 1 nM, 300 pM, 100 pM, 30 pM, 10 pM, 3 pM, 0 pM) in 1×DPBS plus 0.1 mg/mL BSA at room temperature for 30 minutes.

[2] = biological target: T1, human vWF A1 domain (SEQ ID NO 5) (Homo sapiens, UniProt P04275, T1381A); assay: dot blot KD determination, human vWF A1 domain
Experimental: For KD determination, aptamers transcripts were purified on 10% denaturing polyacrylamide gels, 5′ end labeled with γ-^32P ATP.
For KD determination, aptamers were purified on denaturing polyacrylamide gels and 5′-end labeled with γ-^32P ATP. A 6 point protein titration of human vWF A1 domain (SEQ ID NO 5) was used in the dot blot assay (333 nM, 100 nM, 33 nM, 10 nM, 3 nM, 0 nM) in 1×DPBS plus 0.1 mg/mL BSA at room temperature for 30 minutes. KD values were calculated by fitting the equation y=(max/(1+K/protein))+yint using KaleidaGraph (KaleidaGraph v. 3.51, Synergy Software).
KD values were calculated by fitting the equation y=(max/(1+K/protein))+yint using KaleidaGraph (KaleidaGraph v. 3.51, Synergy Software).
All minimer sequences were transcribed, gel-purified on 15% denaturing polyacrylamide gels, 5-^32 end-labeled with γ^32P ATP, and then desalted using two Centri-Spin 10 columns (Princeton Separations Cat. #CS-101, Adelphia, N.J.). For KD determination, minimer transcripts were tested for direct binding to full length human vWF (SEQ ID NO 7), human vWF A1 domain (SEQ ID NO 5), and rabbit vWF A1 domain (SEQ ID NO 6) using an 8 point protein titration from 0-300 nM (3 fold dilutions) in 1× Dulbecco's PBS containing 0.1 mg/mL BSA (in a final volume of 50 uL) for 30 minutes at room temperature and then applied to a nitrocellulose and nylon filter sandwich in a dot blot apparatus (Schleicher and Schuell, Keene, N.H.). KD values were calculated by fitting the equation y=(max/(1+K/protein))+yint using KaleidaGraph (KaleidaGraph v. 3.51, Synergy Software).
All minimer DNA sequences were chemically synthesized, 5-^32P end-labeled with γ-^32P ATP, and then desalted using two Centri-Spin 10 columns (Princeton Separations, Cat. #CS-101, Adelphia, N.J.). […] KD values were calculated by fitting the equation y=(max/(1+K/protein))+yint using KaleidaGraph (KaleidaGraph v. 3.51, Synergy Software).

[3] = tested on: rabbit vWF domain A1 binding to lyophilized platelets; assay: Rabbit von Willebrand Factor domain A1 platelet binding assay (FACS); type: cell-based; conditions: for IC50: 4 nM rabbit A1 vWF, lyophilized platelets, botrocetin
Experimental: Botrocetin induces the binding of the A1 domain of vWF to platelets, as well as the full length protein. It was determined by the inventors that 6-Histidine-tagged rabbit A1 domain vWF purified protein could be induced to bind to human lyophilized platelets with botrocetin. Rabbit A1 binding to platelets is measured with an anti-poly-His antibody followed by incubation with a phycoerythrin conjugated secondary antibody. The degree of binding can be quantified by flow cytometric analysis. The ability of aptamers to block the binding of rabbit A1 to human fixed platelets was correlated with decreased fluorescence signal.
The ability of aptamers of the invention to block rabbit vWF domain A1 binding to lyophilized platelets was also assessed by flow cytometric analysis. Titrations of aptamers (zero, 0.1 nM to 1000 nM) were preincubated briefly with 4 nM of rabbit A1 vWF in FACS buffer (PBS plus 0.5% bovine serum albumin) at room temperature in a volume of 50 uL. Another 50 uL containing 5 uL of lyophilized platelets plus 1 uL of 0.1 U/uL of botrocetin in FACS buffer was added to aptamer/vWF. This reaction was allowed to proceed for 15 minutes at 37 degrees C. after which 200 uL of FACS buffer was added. Platelets were collected by a 6 minute spin at 1470 RCF and the supernatant was discarded. The pellets were resuspended in 100 uL of FACS buffer containing a 1:200 dilution of anti-Penta-HIS-biotin conjugate antibody and were incubated at room temperature for 30 minutes. After the dilution with 200 uL of FACS buffer, the platelets were spun at 1470 RCF for 6 minutes, and the supernatant was discarded. The pellets were resuspended in a 1:100 solution of anti-IgG-PE antibody and were incubated in the dark for 30 minutes at room temperature. The entire 100 uL was diluted into 200 uL of FACS buffer and analyzed immediately by flow cytometric analysis in the FACSCAN. Contaminating debris was eliminated from the analysis by drawing a gate around the population of single and aggregated platelets and collecting data from 10000 events. Median fluorescent intensity (“MedFI”) readings (which are generally equivalent to the MFI readings, described in Example 3a above, for comparative purposes) were quantified for each sample analyzed by flow cytometry. Background MedFI was subtracted from all data points. Percent inhibition was reported by calculating the percent value of binding of […] to platelets in the presence of aptamer at a given concentration relative to binding in the absence of any aptamer (see FIG. 7). IC50 values were determined by fitting the percent inhibition of vWF binding to platelets as a function of aptamer concentration to the equation: % inhibition=% inhibitionmax/(1+IC50/aptamer conc.)

[4] = tested on: botrocetin induced platelet aggregation; assay: Inhibition of botrocetin induced platelet aggregation (BIPA) in human PRP; type: cell-based; conditions: for ≦200 nM aptamer gives >90% blocking in BIPA at 6 minutes: botrocetin induced platelet aggregation
Experimental: In platelet rich plasma isolated from fresh human blood, botrocetin induces platelet aggregation via vWF. Platelet aggregate formation can be measured optically as an increase in % light transmittance on a Chronolog Model 490-4D Aggregometer because aggregation of platelets clarifies the plasma. Aptamers of the invention were analyzed for their ability to inhibit botrocetin induced platelet aggregation (“BIPA”) in human blood. An aptamer of the invention was considered to be active if it could prevent aggregate formation for six minutes post botrocetin addition.
In order to determine the activity of aptamers on live human platelets, BIPA assays were done using freshly prepared platelet rich plasma. Blood was obtained from healthy human donors who had not taken NSAIDS for at least five days. […] Collected blood was pooled into 15 mL conical tubes and was spun at 200 g for 20 minutes. The turbid, yellow layer of platelet rich plasma (“PRP”) was withdrawn from the tubes, pooled, and set aside at room temperature. The remaining blood was spun at 2500 g for ten minutes. The clarified layer of plasma, known as platelet poor plasma (“PPP”), was withdrawn and set aside at room temperature. PRP was aliquoted into cuvettes containing stir bars at a volume of 470 uL. A sample of 500 uL of PPP was aliquoted into a cuvette and placed in the PPP reference cell of the platelet aggregometer. Samples of PRP were prewarmed at 37 degrees C. in the platelet aggregometer for 3-5 minutes before being used in BIPA assays. First, the concentration of botrocetin needed to induce platelet aggregation for each individual donor was determined by titration. This concentration of botrocetin was used for the remainder of the experiment. Next, aptamer was assayed by adding titrations of aptamer (zero, 1 nM to 1000 nM) to prewarmed PRP for one minute, followed by addition of botrocetin. With platelet aggregation, an increase in amplitude of light transmission is seen (FIG. 8). The concentration at which platelet aggregation is blocked at 90% or greater after 6 minutes is reported in the final column of Table 26.

[5] = tested on: full length human vWF binding to lyophilized platelets; assay: Full length human von Willebrand Factor platelet binding assay (FACS); type: cell-based; conditions: for IC50 / Inhibition of full length hVWF binding in FACS assay, IC50 range: 5 nM full length human vWF, lyophilized platelets, botrocetin; for Inhibition of full length hVWF binding in FACS assay, IC50 range: both bounds in nM
Outline: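 Aptamer titrations (0.1–1000 nM) pre-incubated with 5 nM full-length human vWF, then added to lyophilized platelets plus botrocetin for 15 min at 37 °C in PBS/0.5% BSA. Bound vWF detected by anti-vWF then FITC secondary antibody via flow cytometry MFI; % inhibition versus no-aptamer binding fitted for IC50.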

[6] = tested on: full length human vWF (SEQ ID NO 7); assay: dot blot KD determination and extent of binding, full length human vWF; conditions: for Kd: read-out: Full length human vWF KD;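 on all read-outs here: dot blot binding of aptamers to full length human vWF across a protein titration, incubated 30 minutes at room temperature in 1x DPBS with BSA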
[7] = tested on: rabbit vWF A1 domain (SEQ ID NO 6); assay: 3-point dot blot screen, rabbit vWF A1 domain; type: binding; conditions: for Screen Rabbit/No Protein: 3-point dot blot screen, 20 nM rabbit vWF A1 domain, ratio of fraction of aptamer bound with target protein to fraction bound without protein
Outline: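 Rabbit vWF A1 domain binding was screened by dot blot using three conditions: no target protein, human vWF, and rabbit vWF A1 domain at 100 nM (20 nM in the screen run twice). Radiolabeled aptamer bound to nitrocellulose was quantified, and results are expressed as the ratio of bound fraction with protein to bound fraction without protein.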

[8] = biological target: T1, human vWF A1 domain (SEQ ID NO 5); assay: 3-point dot blot screen, human vWF A1 domain; type: binding; conditions: rRfY aptamers; 100 nM human vWF A1 domain; ratio of fraction bound with target to fraction bound without target
Outline: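 Values are ratios of aptamer fraction retained on nitrocellulose with 100 nM vWF A1 domain (human or rabbit) versus a no-protein control. Unique clones from rounds 9 and 12 pools were transcribed, desalted and 5'-32P labeled before this three-point dot blot screen.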

[9] = tested on: full length human vWF; assay: 3-point dot blot screen, full length human vWF; type: binding; conditions: 20 nM full length human vWF, ratio of fraction of aptamer bound with target protein to fraction bound without protein
Outline: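 Unique aptamer clones tested twice by nitrocellulose dot blot with no protein, 20 nM full-length human vWF or 20 nM rabbit vWF A1 domain. Value is fraction of aptamer bound with target divided by fraction bound without protein.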

[10] = read-out: Inhibition of rabbit VWF A1 domain binding in FACS assay, Average IC50
[11] = read-out: Inhibition of full length hVWF binding in FACS assay, Average IC50
[12] = rRdY minimers, 8 point titration 0-300 nM
[13] = DNA 2 minimers, 9 point protein titration
[14] = read-out: human A1 KD, rRfY aptamers, 8 point titration of human vWF A1 domain
[15] = both bounds in nM, read-out: Inhibition of rabbit VWF A1 domain binding in FACS assay, IC50 range

T1 sequence (P04275 with tags, fused parts or gaps T1381A): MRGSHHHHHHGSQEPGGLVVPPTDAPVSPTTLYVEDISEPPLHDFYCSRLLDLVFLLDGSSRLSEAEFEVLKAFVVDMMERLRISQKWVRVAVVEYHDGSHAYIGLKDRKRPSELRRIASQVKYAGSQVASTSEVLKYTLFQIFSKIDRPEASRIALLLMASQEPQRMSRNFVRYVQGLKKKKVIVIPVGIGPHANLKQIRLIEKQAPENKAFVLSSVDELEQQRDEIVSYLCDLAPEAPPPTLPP
rabbit vWF domain A1 binding to lyophilized platelets, sequence (as listed by the source): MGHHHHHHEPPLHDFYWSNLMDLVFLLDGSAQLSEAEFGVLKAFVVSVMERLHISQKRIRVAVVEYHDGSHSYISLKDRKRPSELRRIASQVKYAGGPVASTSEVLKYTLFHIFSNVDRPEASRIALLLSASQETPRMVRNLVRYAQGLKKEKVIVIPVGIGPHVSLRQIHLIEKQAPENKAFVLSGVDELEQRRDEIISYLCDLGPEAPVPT
rabbit vWF A1 domain (SEQ ID NO 6), sequence (as listed by the source): as above

Molecule: CCAGCGGAATGAGAATGCTGATGGATTGCTCAGGTCTGCTGG (DNA, backbone not given here) [SEQ ID NO 204]
- Rabbit vWF A1 domain KD ([1]; DNA 1 minimers): No binding
- Human vWF A1 domain KD ([2]; DNA 1 minimers, competition dot blot, 10 nM protein): No binding

Molecule: GGACCACCCUCGCAACGAGAGUUGUGCCGCUGGUCC (rGrGrAfCfCrAfCfCfCfUfCrGfCrArAfCrGrArGrArGfUfUrGfUrGfCfCrGfCfUrGrGfUfCfC) [SEQ ID NO 174, minimized rRfY aptamer]
- IC50 [3, 10]: 6.8 nM
- ≦200 nM aptamer gives >90% blocking in BIPA at 6 minutes [4]: yes
- IC50 [5, 11]: 6600 pM

Molecule: GGAGCCACACGACATTGGCGCGAGAGCGCATGGCTCC (chemistry not given here) [SEQ ID NO 201, minimized rRdY aptamer]
- ≦200 nM aptamer gives >90% blocking in BIPA at 6 minutes [4]: no activity
- IC50 [5, 11]: 150000 pM

Molecule: GGCCACACGACATTGGCGGGCGAGAGCCACGCATGGCC (rGrGdCdCrAdCrAdCrGrAdCrAdTdTrGrGdCrGrGrGdCrGrArGrArGdCdCrAdCrGdCrAdTrGrGdCdC) [SEQ ID NO 198, minimized rRdY aptamer]
- Kd [1, 12]: 11 ± 2 nM
- Kd ([2]; read-out: Human vWF A1 domain KD, rRdY minimers, 8 point titration 0-300 nM): 5 ± 2 nM
- Kd [6, 12]: 3 ± 0.6 nM
- IC50 [3, 10]: 12.6 nM
- IC50 [5, 11]: 20600 pM

Molecule: GGCGTGCAGTGCC-[PEG]-GGCCGTGCGGTGCCTCCGTCACGCC-3T (DNA GGCGTGCAGTGCCGGCCGTGCGGTGCCTCCGTCACGCCT; chemistry not fully specified) [ARC1029, minimized DNA aptamer]
- Kd [1, 13]: 6.5 ± 1.5 nM
- Kd [6, 13]: 1.4 ± 0.2 nM
- IC50 [3, 10]: 0.754 nM
- inhibition of binding of rabbit vWF A1 domain to lyophilized human platelets ([3]; in words, FACS, FIG. 7): inhibits binding
- ≦200 nM aptamer gives >90% blocking in BIPA at 6 minutes [4]: yes
- inhibition of botrocetin induced platelet aggregation ([4]; in words, human PRP): inhibiting botrocetin induced platelet aggregation
- IC50 [5, 11]: 609 pM
- IC50 ([5]; units in the cell: lower bound pM, upper bound nM, read-out: Inhibition of full length hVWF binding in FACS assay, IC50 range): 333 to 1100 pM
- inhibition of binding of human vWF to lyophilized human platelets ([5]; in words, FACS, FIG. 7): inhibits binding

Molecule: GGCGTGCAGTGCCT-[PEG]-AGGCCGTGCGG-[PEG]-CCGTCACGCC-3T (DNA GGCGTGCAGTGCCTAGGCCGTGCGGCCGTCACGCCT; chemistry not fully specified) [ARC1031, minimized DNA aptamer]
- Rabbit vWF A1 domain KD [1, 13]: No binding
- Full length human vWF KD [6, 13]: No binding
- Inhibition of full length hVWF binding in FACS assay, IC50 range [5]: no activity

Molecule: GGCGTGCAGTGCCTATTCTAGGCCGTGCGG-[PEG]-CCGTCACGCC-3T (DNA GGCGTGCAGTGCCTATTCTAGGCCGTGCGGCCGTCACGCCT; chemistry not fully specified) [ARC1030, minimized DNA aptamer]
- Rabbit vWF A1 domain KD [1, 13]: No binding
- Full length human vWF KD [6, 13]: No binding
- Inhibition of full length hVWF binding in FACS assay, IC50 range [5]: no activity

Molecule: GGGACGGGGTGGGTAGACGGCGGGTATGTCCC (rGrGrGrAdCrGrGrGrGdTrGrGrGdTrArGrAdCrGrGdCrGrGrGdTrAdTrGdTdCdCdC) [SEQ ID NO 183, minimized rRdY aptamer]
- Kd [1, 12]: 14 ± 7 nM
- Kd [6, 12]: 10 ± 5 nM
- IC50 [5, 11]: 26500 pM

B1: AMX201.H3: rRfY aptamer clone (nucleic acid)
chain: rGrGrArGfCrGfCrAfCfUfCrArGfCfCrAfCfUrArAfCrGrGfUfUrGrAfUfCfUfCrArGrGrAfCfUrArArAfUrArGfUfCrArAfCrArArGrGrAfUrGfCrGfUfUfUfCrGrAfCfCfUfCfUfCfUrGfCfUrArGfC
- Screen- Rabbit/No Protein ([7]; rRfY aptamers, 100 nM rabbit vWF A1 domain, ratio of fraction bound with target to without): 1.89
- Kd [2, 14]: 90 nM
- Screen- Human/No Protein [8]: 1.88
- ≦200 nM aptamer gives >90% blocking in BIPA at 6 minutes [4]: yes
- Inhibition of full length hVWF binding in FACS assay, IC50 range [5]: no activity

B2: AMX201.B1: rRfY aptamer clone (nucleic acid)
chain: rGrGrArGfCrGfCrAfCfUfCrArGfCfCrAfCrArGrArGfCfCfCfUrGrArGfUrGfUrAfUrGrAfUfCrGfCfCfUrArGrAfUfCfUrAfUfCrGrAfUrGfCfUfUfUfUfUfCrGrAfCfCfUfCfUfCfUrGfCfUrArGfC
- Kd [2, 14]: 19 nM
- ≦200 nM aptamer gives >90% blocking in BIPA at 6 minutes [4]: yes
- Inhibition of full length hVWF binding in FACS assay, IC50 range [5]: no activity

B3: AMX237.G7: DNA SELEX 2 aptamer clone (nucleic acid)
DNA: CTACCTACGATCTGACTAGCTTGGTAGCGACTTTGTGGAGCTGCGGTTTGGTCGACGTCAGCTTACTCTCATGTAGTTCC
modifications: DNA, backbone not given here
notes: DNA SELEX 2 aptamer clone
- Screen Rabbit/No Protein [7]: 2.54
- Screen- Human/No Protein [9]: 2.68
- IC50 [3, 15]: 12.3 nM
- IC50 [5, 11]: 6500 pM

B4: AMX236.A12: DNA SELEX 2 aptamer clone (nucleic acid)
chain: CTACCTACGATCTGACTAGCTTGGTAGCGACTCTGTGGAGCTGCGGTTTGGTCGACGTCAGCTTACTCTCATGTAGTTCC
modifications: DNA, backbone not given here
notes: DNA SELEX 2 aptamer clone
- Screen Rabbit/No Protein [7]: 2.41
- Screen- Human/No Protein [9]: 2.64
- IC50 [3, 15]: 14.5 nM
- IC50 [5, 11]: 10700 pM
